# From patent US7393939B2, “Placental organic anion transporter and gene thereof” (Japan Science and Technology Corporation, priority 1999, dated 2008)
# Entries after “also recorded” stand apart in the source; their conditions may differ. Structures can show the parent of a compound that is named as a salt. Where two headings read alike, the source gives them in different places.
# Legend:
# Assay type in all cases: cell-based
# OAT4 [1] = target: T1, OAT4 (Homo sapiens, UniProt Q9NSA0); assay: Inhibition experiment: ^3H-estrone sulfate uptake in OAT4 cRNA-injected oocytes with various compounds; conditions: 50 nM ^3H-estrone sulfate; 500 μM unlabeled compound; FIG. 4
# T1 construct: cRNA (an RNA complementary to cDNA) was prepared from a plasmid containing this cDNA; expressed in transfected cells; host or cells: Xenopus laevis oocytes injected with OAT4 cRNA (transcribed in vitro with T7 RNA polymerase from plasmid pZL holding the hOAT4 cDNA)
# T1 sequence (Q9NSA0 1-550): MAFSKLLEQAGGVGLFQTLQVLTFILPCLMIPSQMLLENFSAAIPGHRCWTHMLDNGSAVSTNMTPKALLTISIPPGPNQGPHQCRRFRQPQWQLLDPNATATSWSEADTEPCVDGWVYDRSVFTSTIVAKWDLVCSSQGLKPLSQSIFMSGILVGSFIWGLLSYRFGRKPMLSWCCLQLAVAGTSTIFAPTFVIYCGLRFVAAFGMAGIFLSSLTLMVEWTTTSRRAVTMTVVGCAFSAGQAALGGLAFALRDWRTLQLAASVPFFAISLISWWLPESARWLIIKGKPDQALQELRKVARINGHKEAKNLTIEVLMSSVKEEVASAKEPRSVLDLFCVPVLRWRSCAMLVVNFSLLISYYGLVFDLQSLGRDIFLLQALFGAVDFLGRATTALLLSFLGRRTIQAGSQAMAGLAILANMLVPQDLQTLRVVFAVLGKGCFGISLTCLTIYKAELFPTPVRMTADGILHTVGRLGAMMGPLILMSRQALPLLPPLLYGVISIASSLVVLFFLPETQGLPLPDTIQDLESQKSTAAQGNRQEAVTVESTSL
# Protocol: Further, in order to investigate the substrate selectivity of OAT4 of the present invention, various ionic substances were added to an incorporation experimental system of ^3H-estrone sulfate and the influence thereby was tested (Inhibition Experiment).
# In order to further investigate the substrate selectivity of OAT4, various anionic substances were added to a system in an uptake experiment system of ^3H-estrone sulfate in oocytes into which OAT4 cRNA was injected and the influence was investigated (inhibition experiment). An uptake experiment of ^3H-estrone sulfate was carried out according to the above-mentioned method using oocytes into which OAT4 cRNA was injected. Uptake of 50 nM ^3H-estrone sulfate was measured in the presence and absence of 500 μM of various compounds (unlabeled).
# OAT4 [2] = target: T1, OAT4; assay: Inhibitory test of OAT4 by sulfate conjugates and glucuronic acid conjugates; conditions: FIG. 5
# OAT4 [3] = target: T1, OAT4
# Protocol: In order to confirm that the resulting OTA4 has an organic anion transport activity, cRNA (an RNA complementary to cDNA) was prepared from a plasmid containing this cDNA according to a method of Sekine, et al. (Sekine, T., et al., J. Biol. Chem., volume 272, pages 18526-18529, 1997) and injected into oocytes of Xenopus laevis and the oocytes were subjected to an incorporation experiment for various organic anions and organic cations which were labeled with radioisotopes.
# From an OAT4 cDNA-containing plasmid was prepared cRNA (an RNA complementary to cDNA) in vitro using a T7 RNA polymerase (Sekine, T., et al., J. Biol. Chem., volume 272, pages 18526-18529, 1997).
# The resulting cRNA was injected into oocytes of Xenopus laevis according to the already-reported method (Sekine, T., et al., J. Biol. Chem., volume 272, pages 18526-18529, 1997) and the oocytes were subjected to an incorporation experiment using various labeled organic anions and organic cations.
# OAT4 [4] = target: T1, OAT4; assay: Cation (sodium) dependency of estrone sulfate transport via OAT4 in oocytes; conditions: extracellular sodium substituted with lithium and choline; FIG. 3
# Protocol: Dependency of the OAT4 of the present invention on sodium in an organic anion transport was investigated. Incorporation of estrone sulfate by OAT4 was tested in the presence of various extracellular cations.
# Sodium-dependency of OAT4 in an organic anion transport was investigated. Even when extracellular sodium was substituted with lithium and choline, there was no change in the transport of estrone sulfate via OAT4 and it was clarified that OAT4 is an organic anion transporter which is independent on extracellular sodium (refer to FIG. 3).
# OAT4 [5] = target: T1, OAT4; assay: Michaelis-Menten kinetic test of organic anion transport by OAT4 in oocytes injected with OAT4 cRNA; conditions: FIG. 2
# Protocol: After that, the above-mentioned oocytes into which OAT4 cRNA was injected was used for checking the changes in the amount of estrone sulfate, dehydroepiandrosterone sulfate and ochratoxin A incorporated by OAT4 of the present invention at various concentrations whereby a Michaelis-Menten dynamic test for an organic anion transport was carried out.
# A Michaelis-Menten dynamic test was carried out for an organic anion transport of OAT4. Changes in the uptake amount of various concentrations of estrone sulfate and dehydroepiandrosterone sulfate by OAT4 were tested whereby concentration dependency of those substrates by OAT4 was investigated. The uptake experiment of labeled estrone sulfate and dehydroepiandrosterone sulfate was carried out according to the above-mentioned method using oocytes into which OAT4 cRNA was injected.
Compound,inhibition of transport of ^3H-estrone sulfate by OAT4 (OAT4 [1]),also measured
O=C1OC(c2ccc(O)c(S(=O)(=O)O)c2)(c2ccc(O)c(S(=O)(=O)O)c2)c2c(Br)c(Br)c(Br)c(Br)c21 [bromosulfophthalein],significantly inhibited,–
CCCCNc1cc(C(=O)O)cc(S(N)(=O)=O)c1Oc1ccccc1 [bumetanide],significantly inhibited,–
C[C@H](CCC(=O)O)[C@H]1CC[C@H]2[C@@H]3[C@H](O)C[C@@H]4C[C@H](O)CC[C@]4(C)[C@H]3C[C@H](O)[C@]12C [cholic acid],significantly inhibited,–
O=C(O)Cc1ccccc1Nc1c(Cl)cccc1Cl [diclofenac],significantly inhibited,–
CC(C)Cc1ccc(C(C)C(=O)O)cc1 (stereo not drawn) [ibuprofen],significantly inhibited,–
COc1ccc2c(c1)c(CC(=O)O)c(C)n2C(=O)c1ccc(Cl)cc1 [indomethacin],significantly inhibited,–
Nc1cc(N2CCCCC2)nc(N)[n+]1OS(=O)(=O)[O-] [minoxidil sulfate],–,interaction with OAT4 (inhibitory test) (OAT4 [2]): all sulfate conjugates except minoxidil sulfate showed an interaction
C[C@@H]1Cc2c(Cl)cc(C(=O)N[C@@H](Cc3ccccc3)C(=O)O)c(O)c2C(=O)O1 [ochratoxin A],–,"incorporation (uptake) by oocytes expressing OAT4 (OAT4 [3]; Xenopus laevis oocytes injected with OAT4 cRNA, radiolabeled substrate, FIG. 1, listed as 3H-ochratoxin A): incorporated; also recorded: showed incorporation"
CC1(C)S[C@@H]2[C@H](NC(=O)Cc3ccccc3)C(=O)N2[C@H]1C(=O)O [penicillin G],significantly inhibited,–
CCCN(CCC)S(=O)(=O)c1ccc(C(=O)O)cc1 [probenecid],significantly inhibited,–
C[C@H](CCC(=O)NCCS(=O)(=O)O)[C@H]1CC[C@H]2[C@@H]3[C@H](O)C[C@@H]4C[C@H](O)CC[C@]4(C)[C@H]3C[C@H](O)[C@]12C [taurocholic acid],significantly inhibited,–
CC[N+](CC)(CC)CC [tetraethylammonium],did not show an inhibiting action; also recorded: did not show any inhibiting action,incorporation (uptake) by oocytes expressing OAT4 (OAT4 [3]): no incorporation was noted
O=C(O)[C@H]1O[C@@H](Oc2cccc3ccccc23)[C@H](O)[C@@H](O)[C@@H]1O [α-naphthyl-β-glucuronide],–,interaction with OAT4 (inhibitory test) (OAT4 [2]): only a weak interaction with OAT4 except α-naphthyl-β-glucuronide
dehydroepiandrosterone sulfate,–,"incorporation (uptake) by oocytes expressing OAT4 (OAT4 [3]; Xenopus laevis oocytes injected with OAT4 cRNA, radiolabeled substrate, FIG. 1, listed as 3H-dehydroepiandrosterone sulfate): incorporated; also recorded: showed incorporation"
estrone sulfate,–,"incorporation (uptake) by oocytes expressing OAT4 (OAT4 [3]; Xenopus laevis oocytes injected with OAT4 cRNA, radiolabeled substrate, FIG. 1, listed as 3H-estrone sulfate): incorporated; also recorded: showed incorporation; change in transport of estrone sulfate via OAT4 on cation substitution (OAT4 [4]): no change; Km (OAT4 [5]): 1.01 ± 0.15 µM"
